Reference: ChEMBL document CHEMBL1201862, “PubChem BioAssay data set” (2004)
Calls of active or inactive are those of the source.

Legend:
Caspase-3 = target: T1, Caspase-3 (Homo sapiens, UniProt P42574); test: SAR Analysis of small molecule inhibitors of Sentrin-specific proteases (SENPs) using a Caspase-3 Selectivity assay. [Related pubchem assays (depositor defined):AID2540, AID2599, AID434973, AID489001]; format: functional
T1 sequence (P42574 whole entry): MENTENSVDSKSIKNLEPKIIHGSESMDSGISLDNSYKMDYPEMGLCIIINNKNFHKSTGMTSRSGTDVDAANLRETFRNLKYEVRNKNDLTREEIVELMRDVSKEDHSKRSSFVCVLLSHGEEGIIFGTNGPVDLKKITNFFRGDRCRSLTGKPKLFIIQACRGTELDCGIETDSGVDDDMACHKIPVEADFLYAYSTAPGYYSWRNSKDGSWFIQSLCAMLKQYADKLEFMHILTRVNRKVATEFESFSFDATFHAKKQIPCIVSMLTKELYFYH

[1] = target: T2, Sentrin-specific protease 7 (Homo sapiens, UniProt Q9BQF6); test: SENP7 protease inhibitors, SAR follow-up, biochemical, luminescence (AID 504497); format: functional
T2 sequence (Q9BQF6 whole entry): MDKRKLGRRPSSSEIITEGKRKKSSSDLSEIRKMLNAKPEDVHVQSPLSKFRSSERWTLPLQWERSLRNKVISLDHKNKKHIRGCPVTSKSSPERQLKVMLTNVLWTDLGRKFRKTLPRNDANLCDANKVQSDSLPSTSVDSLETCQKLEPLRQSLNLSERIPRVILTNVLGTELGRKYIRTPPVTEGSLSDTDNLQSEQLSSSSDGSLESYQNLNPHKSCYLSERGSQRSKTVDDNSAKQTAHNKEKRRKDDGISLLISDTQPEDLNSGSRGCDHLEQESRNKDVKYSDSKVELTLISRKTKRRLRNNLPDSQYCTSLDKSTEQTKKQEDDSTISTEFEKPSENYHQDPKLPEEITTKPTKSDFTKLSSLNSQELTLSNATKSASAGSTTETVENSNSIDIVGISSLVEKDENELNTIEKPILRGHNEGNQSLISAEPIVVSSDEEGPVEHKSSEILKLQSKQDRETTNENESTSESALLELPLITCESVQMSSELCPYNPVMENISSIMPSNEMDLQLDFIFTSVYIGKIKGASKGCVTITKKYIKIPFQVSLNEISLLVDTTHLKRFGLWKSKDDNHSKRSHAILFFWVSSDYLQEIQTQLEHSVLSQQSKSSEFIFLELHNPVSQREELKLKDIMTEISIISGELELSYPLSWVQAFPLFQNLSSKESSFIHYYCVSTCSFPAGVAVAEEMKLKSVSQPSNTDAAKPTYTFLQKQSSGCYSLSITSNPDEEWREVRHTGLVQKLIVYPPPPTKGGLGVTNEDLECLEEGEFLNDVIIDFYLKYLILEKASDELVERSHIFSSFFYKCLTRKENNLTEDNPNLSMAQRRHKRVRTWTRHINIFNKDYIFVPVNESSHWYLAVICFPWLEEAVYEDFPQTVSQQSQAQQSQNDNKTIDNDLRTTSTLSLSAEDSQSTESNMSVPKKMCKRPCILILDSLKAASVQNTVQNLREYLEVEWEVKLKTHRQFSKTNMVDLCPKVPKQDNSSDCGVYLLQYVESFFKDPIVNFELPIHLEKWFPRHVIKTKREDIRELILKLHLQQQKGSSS

[2] = target: T3, Sentrin-specific protease 8 (Homo sapiens, UniProt Q96LD8); test: SENP8 protease inhibitors, SAR follow-up, biochemical, luminescence (AID 504501); format: functional
T3 sequence (Q96LD8 whole entry): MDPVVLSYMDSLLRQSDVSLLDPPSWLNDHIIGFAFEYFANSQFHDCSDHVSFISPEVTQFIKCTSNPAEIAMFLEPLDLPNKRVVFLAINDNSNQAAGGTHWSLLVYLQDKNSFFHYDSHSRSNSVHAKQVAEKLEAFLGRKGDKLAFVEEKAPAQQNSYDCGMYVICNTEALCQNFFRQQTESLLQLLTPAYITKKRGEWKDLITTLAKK

[3] = target: T4, Sentrin-specific protease 6 (Homo sapiens, UniProt Q9GZR1); test: SAR Analysis of small molecule inhibitors of Sentrin-specific protease 6 (SENP6) using a Luminescent assay. [Related pubchem assays (depositor defined):AID2582, AID2599]; format: functional
T4 sequence (Q9GZR1 whole entry): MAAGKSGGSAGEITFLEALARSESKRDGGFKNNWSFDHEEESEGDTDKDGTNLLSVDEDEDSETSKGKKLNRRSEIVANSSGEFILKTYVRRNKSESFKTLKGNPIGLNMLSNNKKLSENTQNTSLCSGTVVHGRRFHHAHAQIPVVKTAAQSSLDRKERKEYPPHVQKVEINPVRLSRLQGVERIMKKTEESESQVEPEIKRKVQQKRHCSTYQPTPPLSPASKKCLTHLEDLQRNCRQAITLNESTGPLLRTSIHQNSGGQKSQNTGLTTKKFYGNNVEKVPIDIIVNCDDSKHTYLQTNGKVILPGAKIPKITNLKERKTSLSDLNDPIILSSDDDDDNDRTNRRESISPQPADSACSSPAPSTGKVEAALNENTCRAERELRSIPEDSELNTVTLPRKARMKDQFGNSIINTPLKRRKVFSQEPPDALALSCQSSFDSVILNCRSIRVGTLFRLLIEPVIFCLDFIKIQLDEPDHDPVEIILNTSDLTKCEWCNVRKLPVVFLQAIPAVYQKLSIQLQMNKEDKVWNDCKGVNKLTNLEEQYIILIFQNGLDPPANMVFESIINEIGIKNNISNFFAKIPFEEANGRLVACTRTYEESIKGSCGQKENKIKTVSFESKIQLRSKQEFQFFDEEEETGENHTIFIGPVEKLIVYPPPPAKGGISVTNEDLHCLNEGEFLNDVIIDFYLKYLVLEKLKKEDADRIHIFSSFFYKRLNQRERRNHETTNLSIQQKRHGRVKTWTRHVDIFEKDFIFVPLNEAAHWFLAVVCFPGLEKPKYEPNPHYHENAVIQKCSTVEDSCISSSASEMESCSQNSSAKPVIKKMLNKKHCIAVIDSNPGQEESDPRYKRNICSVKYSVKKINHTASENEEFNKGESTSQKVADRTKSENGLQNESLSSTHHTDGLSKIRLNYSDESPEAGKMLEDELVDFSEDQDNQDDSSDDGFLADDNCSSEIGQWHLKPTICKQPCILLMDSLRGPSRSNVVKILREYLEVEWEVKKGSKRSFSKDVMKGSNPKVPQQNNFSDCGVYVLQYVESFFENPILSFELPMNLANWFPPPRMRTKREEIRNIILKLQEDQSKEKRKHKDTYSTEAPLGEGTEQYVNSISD

Insulin-degrading enzyme [4] = target: T5, Insulin-degrading enzyme (Homo sapiens, UniProt P14735); test: activators of recombinant IDE enzyme, dose response, counter-screen for IDE activator project, biochemical, fluorescence polarization (AID 588681)
T5 sequence (P14735 whole entry): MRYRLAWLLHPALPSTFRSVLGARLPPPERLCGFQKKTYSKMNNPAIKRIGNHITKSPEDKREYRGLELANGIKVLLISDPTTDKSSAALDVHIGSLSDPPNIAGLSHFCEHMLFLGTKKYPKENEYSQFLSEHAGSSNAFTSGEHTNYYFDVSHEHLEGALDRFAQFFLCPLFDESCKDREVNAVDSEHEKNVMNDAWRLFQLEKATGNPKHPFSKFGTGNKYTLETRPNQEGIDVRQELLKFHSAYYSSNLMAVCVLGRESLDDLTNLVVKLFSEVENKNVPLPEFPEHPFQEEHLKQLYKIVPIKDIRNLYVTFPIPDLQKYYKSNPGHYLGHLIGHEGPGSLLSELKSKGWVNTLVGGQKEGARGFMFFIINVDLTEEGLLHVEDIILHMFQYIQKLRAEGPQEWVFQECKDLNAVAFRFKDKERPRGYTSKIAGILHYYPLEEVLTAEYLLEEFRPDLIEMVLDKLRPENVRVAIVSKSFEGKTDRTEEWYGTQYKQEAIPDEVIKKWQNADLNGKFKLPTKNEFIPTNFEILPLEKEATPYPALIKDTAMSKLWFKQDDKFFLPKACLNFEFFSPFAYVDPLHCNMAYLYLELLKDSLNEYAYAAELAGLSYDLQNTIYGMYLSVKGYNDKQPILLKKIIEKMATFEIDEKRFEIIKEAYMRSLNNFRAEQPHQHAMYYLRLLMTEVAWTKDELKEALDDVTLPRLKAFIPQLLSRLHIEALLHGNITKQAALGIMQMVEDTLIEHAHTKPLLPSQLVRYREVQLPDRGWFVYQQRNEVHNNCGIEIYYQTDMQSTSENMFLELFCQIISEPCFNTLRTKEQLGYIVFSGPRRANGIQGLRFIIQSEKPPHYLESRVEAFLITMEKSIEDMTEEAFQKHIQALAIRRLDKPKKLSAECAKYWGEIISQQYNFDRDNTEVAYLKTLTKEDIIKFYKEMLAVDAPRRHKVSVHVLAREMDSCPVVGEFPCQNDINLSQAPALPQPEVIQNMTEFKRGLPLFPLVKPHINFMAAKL

Insulin-degrading enzyme [5] = target: T5, Insulin-degrading enzyme; test: activators of endogenous IDE in HEK cells, dose response, cell-based, fluorescence polarization (AID 588439); format: functional
HEK293 [6] = test: optical interference in Abeta FP readout, dose response, artefact control for IDE activator project, biochemical, fluorescence polarization (AID 588442); format: functional, cell-based; details: Homo sapiens
HEK293 [7] = test: HEK cell cytotoxicity by LDH release, dose response, cytotoxicity control for IDE activator project, fluorescence, HEK cells (AID 588440); format: functional, cell-based; details: Homo sapiens;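 further: cytotoxicity by LDH release measuring loss of membrane integrity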
[8] = (§1) Counterscreen for antagonists of the orexin 1 receptor (OX1R; HCRTR1): Fluorescence-based cell-based high throughput dose response assay to identify antagonists of the parental CHO cell line. [Related pubchem assays (depositor defined):AID434989, AID435008, AID463079, AID485270, AID492963, AID492964, AID492965, AID493232, AID504699, AID504701]; format: functional
[9] = target: T6, Orexin/Hypocretin receptor type 1 (Homo sapiens, UniProt O43613); test: Homogeneous Time Resolved Fluorescence (HTRF)-based cell-based high throughput dose response assay for antagonists of the orexin 1 receptor (OX1R; HCRTR1). [Related pubchem assays (depositor defined):AID434989, AID435008, AID463079, AID485270, AID492963, AID492964, AID492965, AID493232, AID504717, AID504718]; format: functional
T6 sequence (O43613 whole entry): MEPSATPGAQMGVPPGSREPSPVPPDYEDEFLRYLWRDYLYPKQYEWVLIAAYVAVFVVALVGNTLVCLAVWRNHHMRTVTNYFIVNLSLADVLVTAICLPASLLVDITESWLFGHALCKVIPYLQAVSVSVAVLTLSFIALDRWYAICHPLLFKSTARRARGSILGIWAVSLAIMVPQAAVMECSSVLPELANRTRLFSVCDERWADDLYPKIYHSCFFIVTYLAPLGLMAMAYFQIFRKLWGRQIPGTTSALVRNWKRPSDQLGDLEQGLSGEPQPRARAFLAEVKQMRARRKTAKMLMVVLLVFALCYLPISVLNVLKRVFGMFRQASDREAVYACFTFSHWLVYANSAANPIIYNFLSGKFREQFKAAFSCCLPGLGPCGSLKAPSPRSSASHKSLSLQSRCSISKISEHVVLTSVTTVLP

CHO-K1 = test: as §1, with “Homogeneous time resolved fluorescence (HTRF)-based” for “Fluorescence-based”, “cell-based” for “cell-based high throughput”, “CHO-K1” for “CHO”; format: functional; details: Cricetulus griseus;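 further: potency for inhibition of ATP-stimulated IP1 production as antagonists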
Orexin receptor type 2 [10] = target: T7, Orexin receptor type 2 (Homo sapiens, UniProt O43614); test: Counterscreen assay for antagonists of the orexin 1 receptor (OX1R; HCRTR1): Homogeneous Time Resolved Fluorescence (HTRF)-based cell-based dose response assay for antagonists of the orexin 2 receptor (OX2R; HCRTR2), run by assay provider.; format: functional
T7 sequence (O43614 whole entry): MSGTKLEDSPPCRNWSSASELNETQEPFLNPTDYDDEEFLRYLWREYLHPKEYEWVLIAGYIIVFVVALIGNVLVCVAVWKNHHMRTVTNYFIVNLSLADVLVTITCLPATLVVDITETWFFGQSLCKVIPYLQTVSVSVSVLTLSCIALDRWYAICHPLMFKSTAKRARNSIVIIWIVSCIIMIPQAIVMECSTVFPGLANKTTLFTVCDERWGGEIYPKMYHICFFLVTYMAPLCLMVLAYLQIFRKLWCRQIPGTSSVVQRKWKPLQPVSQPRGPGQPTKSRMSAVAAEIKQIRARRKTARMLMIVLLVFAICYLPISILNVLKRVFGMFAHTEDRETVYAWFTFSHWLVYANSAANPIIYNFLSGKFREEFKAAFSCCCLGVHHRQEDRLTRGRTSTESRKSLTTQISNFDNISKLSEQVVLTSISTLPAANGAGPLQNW

Orexin receptor type 2 [11] = target: T7, Orexin receptor type 2; test: Counterscreen assay for antagonists of the orexin 1 receptor (OX1R; HCRTR1): Fluorescence-based cell-based dose response assay for antagonists of the orexin 2 receptor (OX2R; HCRTR2), run by assay provider.; format: functional
[12] = target: T6, Orexin/Hypocretin receptor type 1; test: Fluorescence-based cell-based high throughput dose response assay for antagonists of the orexin 1 receptor (OX1R; HCRTR1). [Related pubchem assays (depositor defined):AID434989, AID435008, AID463079, AID485270, AID492963, AID492964, AID492965, AID493232, AID504717, AID504718]; format: functional

With `COc1ccc(C2C(C#N)=C(/N=C/N(C)C)Oc3c2c(C)nn3-c2ccccc2)cc1` (stereo not drawn) the IC50 (Caspase-3) was > 99 µM (inactive), the IC50 [1] was > 99 µM (inactive) and the IC50 [2] was > 99 µM (inactive). The IC50 [3] was > 99 µM (inactive).
In the case of `Fc1cc(F)cc(-c2noc(/C=C/c3ccccc3)n2)c1`, the IC50 (Caspase-3) is reported as > 99 µM (inactive), the IC50 [1] is reported as > 99 µM (inactive) and the IC50 [2] is reported as > 99 µM (inactive). For the same molecule, the IC50 [3] was > 99 µM (inactive).
In the case of `C=CCN1C(=O)c2ccc(C(=O)OCC(=O)N(CC)C3CCS(=O)(=O)C3)cc2C1=O` (stereo not drawn), the EC50 (Insulin-degrading enzyme [4]) is reported as > 54.7 µM (inactive), the EC50 (Insulin-degrading enzyme [5]) is reported as > 54.7 µM (inactive) and the EC50 (HEK293 [6]) is reported as > 54.7 µM (inactive). The IC50 (HEK293 [7]) was > 89.2 µM (inactive).
With `COC(=O)c1ccccc1NC(=O)CSc1nc(O)cc(=O)n1C1CCCC1` the IC50 [8] was > 49.8 µM (inactive), the IC50 [9] was 0.137 µM (active) and the IC50 (CHO-K1) was > 66.2 µM (inactive). For the same molecule, the IC50 (Orexin receptor type 2 [10]) was > 50 µM (inactive), the IC50 (Orexin receptor type 2 [11]) was 56.2 µM (inactive) and the IC50 [12] was 4.86 µM (active).
